In patent publication US12509430B2, “Inhibitors of nicotinamide N-methyltransferase, compositions and uses thereof” (President and Fellows of Harvard College, priority 2020, dated 2025):
Read-outs that look alike come from different tables or passages of the source. One block for each compound: values may come before it.

How the values were obtained:
[1] = target: T1, recombinant human NNMT (Homo sapiens, UniProt P40261); test: in vitro NNMT enzyme inhibition assay (Promega MTase-Glo Methyltransferase Assay); assay type: biochemical
T1 sequence (P40261 1-264): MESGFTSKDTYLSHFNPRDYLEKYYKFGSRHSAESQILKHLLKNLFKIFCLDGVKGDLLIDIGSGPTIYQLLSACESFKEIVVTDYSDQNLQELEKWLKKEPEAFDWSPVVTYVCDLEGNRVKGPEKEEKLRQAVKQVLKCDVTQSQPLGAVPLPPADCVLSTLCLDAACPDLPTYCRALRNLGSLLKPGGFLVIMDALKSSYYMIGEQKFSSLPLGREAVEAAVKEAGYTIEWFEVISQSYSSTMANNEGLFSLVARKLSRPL
Description: NNMT biochemical activity for was evaluated using the Promega Mtase-Glo Methyltransferase Assay kit. Assays were performed in a white, flat-bottomed 96 well plate. […] Reactions were performed for 20 minutes at room temperature. MTase-Glo reagent and MTase-Glo detection solution were added according to manufacturer's instructions and luminescence signal measured with a SpectraMax i3 plate reader and data analyzed with GraphPad Prism version 8. FIG. 14 depicts a visual summary of the Promega MTase-Glo Methyltransferase assay used to assess biochemical activity of novel inhibitors.

[2] = Microsomal stability, mouse microsomes with NADPH and UDPGA (Phase II); assay type: in vitro ADME; conditions: mouse liver microsomes, NADPH & UDPGA
Description: (§1) The metabolism of Compounds 4 and 13 was evaluated using a microsomal stability assay. Briefly, a master solution was prepared according to Tables 5 and 6.
(§2) For the assay with NADPH and UDPGA (Phase II), 40 μL of 10 mM NADPH solution and 40 μL of 20 mM UDPGA solution were added to each well. The final concentrations of NADPH and UDPGA were 1 mM and 2 mM. […] The negative control samples were prepared by replacing cofactors (NADPH and UDPGA) solution with 80 μL of ultra-pure H2O. Samples with cofactors were prepared in duplicate. Negative controls were prepared in singlet.
(§3) The reaction was started with the addition of 2 μL of 400 μM control compound or test compound solutions. Diclofenac was used as positive control in this study. The final concentration of test compound or control compound was 2 μM.
(§4) Aliquots of 50 μL were taken from the reaction solution at 0, 15, 30, 45 and 60 minutes.

[3] = tested on: 1-Methylnicotinamide (1-MNA); test: In vivo pharmacodynamics, plasma 1-MNA in female C57B16/N mice after inhibitor dosing; set-up: species or system mouse
Description: 1-Methylnicotinamide (1-MNA) concentrations were also determined.
Then the samples were vortexed for 30 s.

[4] = Microsomal stability, human microsomes with NADPH (Phase I); assay type: in vitro ADME; conditions: human liver microsomes; for CLhep predicted at 2 μM: read-out: Predicted hepatic Clint; for CLint scaled at 2 μM: read-out: Scaled-up CLint
Description: as §1
(§5) The final concentrations of NADPH was 1 mM. […] Samples with NADPH were prepared in duplicate. Negative controls were prepared in singlet.
(§6) Verapamil was used as positive control in this study. The final concentration of test compound or control compound was 2 μM.
as §4

[5] = target: T2, NNMT in ovarian CAFs (Homo sapiens, UniProt P40261); test: 1-MNA quantification in ovarian cancer associated fibroblasts; assay type: cell-based; conditions: 1 μM, six day continuous treatment
T2 construct: host or cells: ovarian cancer-associated fibroblasts
T2 sequence (P40261 1-264): T1 sequence (P40261 1-264)
Description: (§7) All cells were cultured at 37° C. in a humidified incubator buffered with 5% CO2. K562 cells were maintained in RPMI supplemented with 10% fetal bovine serum (FBS). Ovarian CAFs were maintained in MSC-Gro Vitroplus III for proliferation and in DMEM containing 10 μM methionine with 10% dialyzed FBS for experiments. K562 were purchased from ATCC. Ovarian CAFs were purchased from Neuromics.
1-MNA quantification in ovarian CAFs (Neuromics) was performed similarly as in K562 cells, except cells were scraped off the plate in PBS buffer after a six day continuous treatment with compound and then extracted.

[6] = target: T3, NNMT in K562 cells (Homo sapiens, UniProt P40261); test: Cellular inhibition of NNMT in K562 cells by 1-MNA quantification; assay type: cell-based
T3 construct: In K562 cells, which express NNMT; host or cells: K562
T3 sequence (P40261 1-264): T1 sequence (P40261 1-264)
Description: Cellular activity was measured in K562 (ATCC) cells via measuring (1-methyl nicotinamide) 1-MNA levels after compound incubation at varying concentrations overnight. […] Cells were collected by pipetting and extracted with 200 ul acetonitrile containing internal deuterated standard 10 ng/ml d4-1-MNA. […] The mobile phase A was 2.5 mM ammonium formate in water, and mobile phase B was methanol with 0.1% formic acid, delivered at 0.25 mL/min. The capillary voltage was set to 2400V and the nozzle at 300V. The drying gas temperature was 240° C., the drying gas flow rate was 4 L/min, and the nebulizer pressure was 40 psi. The mass spectrometer was run in multiple reaction monitoring mode.
as §7

[7] = Microsomal stability, human microsomes with NADPH and UDPGA (Phase II); assay type: in vitro ADME; conditions: human liver microsomes, NADPH & UDPGA
Description: as §1, §2, §3, §4

[8] = Microsomal stability, mouse microsomes with NADPH (Phase I); assay type: in vitro ADME; conditions: mouse liver microsomes; for CLhep predicted at 2 μM: read-out: Predicted hepatic Clint; for CLint scaled at 2 μM: read-out: Scaled-up CLint
Description: as §1, §5, §6, §4

[9] = In vivo pharmacokinetics, plasma concentration of inhibitor in female C57B16/N mice
Description: Doses were freshly prepared on the day of dosing.

[10] = tested on: Ovarian Cancer Associated Fibroblasts (CAF) markers; test: CAF markers in ovarian CAFs (gel electrophoresis); assay type: cell-based, human; conditions: incubation with compound, FIG. 5
Description: as §7

[11] = tested on: U2OS; test: Cellular Activity IC50 (U2OS); assay type: cell-based; conditions: Homo sapiens
[12] = tested on: 3T3L-1; test: Cellular Activity IC50 (3T3L-1); assay type: cell-based; conditions: Mus musculus, 3T3-L1
[13] = read-out: Predicted hepatic Clint
[14] = plasma 1-MNA after inhibitor IV 1 mg/kg
[15] = plasma 1-MNA after inhibitor PO 10 mg/kg
[16] = plasma 1-MNA after inhibitor PO 50 mg/kg
[17] = K562, read-out: Cellular Activity IC50 (K562)
[18] = IV 1 mg/kg, female C57B16/N mice
[19] = PO 10 mg/kg, female C57B16/N mice, plasma
[20] = PO 50 mg/kg, female C57B16/N mice, plasma
[21] = female, C57B16/N, mouse, plasma, iv, 1 mg/kg
[22] = female, C57B16/N, mouse, plasma, po, 10 mg/kg
[23] = female, C57B16/N, mouse, plasma, po, 50 mg/kg

SMILES: CNc1cc(C)c(C(N)=O)cn1 [Compound 4, 4-methyl-6-(methylamino) nicotinamide]
IC50 ([1]; 40 nM recombinant human NNMT, 8 μM nicotinamide, 20 min, read-out: IC50, in vitro NNMT enzyme inhibition assay): 244 nM | IC50 ([1]; read-out: in vitro hNNMT IC50): 240 nM | microsomal CLint at 2 μM [2]: < 5.42 µL/min/mg | half-life at 2 μM ([2]; 2 μM): > 4.26 h | Remaining (%) at 60 min ([2]; 60 min): 85.18% | CLhep predicted at 2 μM [2, 13]: < 18.8 mL/min/kg | CLint scaled at 2 μM ([2]; read-out: Scaled-up CLint): < 23.7 mL/min/kg | AUClast of 1-MNA [3, 14]: 792 ng·h/mL | Cmax of 1-MNA [3, 14]: 39.3 ng/mL | Tmax of 1-MNA [3, 14]: 16.7 h | AUClast of 1-MNA [3, 15]: 761 ng·h/mL | Cmax of 1-MNA [3, 15]: 42.4 ng/mL | Tmax of 1-MNA [3, 15]: 18.7 h | AUClast of 1-MNA [3, 16]: 678 ng·h/mL | Cmax of 1-MNA [3, 16]: 48.8 ng/mL | Tmax of 1-MNA [3, 16]: 24.0 h | microsomal CLint at 2 μM [4]: < 5.42 µL/min/mg | half-life at 2 μM [4]: > 4.26 h | Remaining (%) at 60 min [4]: 94.54% | CLhep predicted at 2 μM [4]: < 5.12 mL/min/kg | CLint scaled at 2 μM [4]: < 6.79 mL/min/kg | NNMT inhibition in ovarian CAFs (1-MNA quantification) [5]: significantly inhibited NNMT | IC50 [6, 17]: 16 nM | IC50 ([6]; K562 cells, 24 h, 1-MNA quantification, read-out: IC50, NNMT inhibition in K562 cells): 15 nM | microsomal CLint at 2 μM [7]: < 5.42 µL/min/mg | half-life at 2 μM ([7]; 2 μM): > 4.26 h | Remaining (%) at 60 min ([7]; 60 min): 96.85% | CLhep predicted at 2 μM [7, 13]: < 5.12 mL/min/kg | CLint scaled at 2 μM ([7]; read-out: Scaled-up CLint): < 6.79 mL/min/kg | microsomal CLint at 2 μM [8]: < 5.42 µL/min/mg | half-life at 2 μM [8]: > 4.26 h | Remaining (%) at 60 min [8]: 85.32% | CLhep predicted at 2 μM [8]: < 18.8 mL/min/kg | CLint scaled at 2 μM [8]: < 23.7 mL/min/kg | Cl_obs [9, 18]: 62.8 mL/min/kg | Vss_obs [9, 18]: 0.786 L/kg | AUC_%Extrap_obs ([9]; IV 1 mg/kg, female C57B16/N mice, plasma): 1.63% | F_last ([9]; PO 10 mg/kg, female C57B16/N mice): 101% | AUC_%Extrap_obs [9, 19]: 0.194% | T1/2 [9, 19]: 1.11 h | F_last ([9]; PO 50 mg/kg, female C57B16/N mice): 222% | AUC_%Extrap_obs [9, 20]: 0.319% | AUClast [9, 20]: 30747 ng·h/mL | Cmax [9, 20]: 38900 ng/mL | T1/2 [9, 20]: 1.79 h | AUC(0-inf) [9, 21]: 278 ng·h/mL | AUC(0-t) [9, 21]: 273 ng·h/mL | C0 [9, 21]: 1190 ng/mL | MRT inf [9, 21]: 0.216 h | half-life [9, 21]: 0.174 h | AUC(0-inf) [9, 22]: 2810 ng·h/mL | AUC(0-t) [9, 22]: 2800 ng·h/mL | Cmax [9, 22]: 4000 ng/mL | MRT inf [9, 22]: 0.635 h | AUC(0-inf) [9, 23]: 30800 ng·h/mL | MRT inf [9, 23]: 0.695 h | CAF markers in ovarian CAFs [10]: reduction in CAF markers

IC50 ([1]; read-out: in vitro hNNMT IC50): 673 nM | microsomal CLint at 2 μM [4]: < 5.42 µL/min/mg | half-life at 2 μM [4]: > 4.26 h | Remaining (%) at 60 min [4]: 110.09% | CLhep predicted at 2 μM [4]: < 5.12 mL/min/kg | CLint scaled at 2 μM [4]: < 6.79 mL/min/kg | IC50 [6, 17]: 106 nM | microsomal CLint at 2 μM [8]: < 5.42 µL/min/mg | half-life at 2 μM [8]: > 4.26 h | Remaining (%) at 60 min [8]: 85.85% | CLhep predicted at 2 μM [8]: < 18.8 mL/min/kg | CLint scaled at 2 μM [8]: < 23.7 mL/min/kg
SMILES: CNc1cc(Cl)c(C(N)=O)cn1 [Compound 13]

SMILES: COc1ccc(C(N)=O)cn1 [JBSNF-000088]
IC50 ([1]; read-out: in vitro hNNMT IC50): 2400 nM | IC50 [11]: 1600 nM | IC50 [12]: 6300 nM

microsomal CLint at 2 μM [4]: ~6.84 µL/min/mg | half-life at 2 μM [4]: ~3.38 h | Remaining (%) at 60 min [4]: 81.72% | CLhep predicted at 2 μM [4]: ~6.06 mL/min/kg | CLint scaled at 2 μM [4]: ~8.57 mL/min/kg | IC50 [11]: 300 nM | microsomal CLint at 2 μM [8]: ~4.94 µL/min/mg | half-life at 2 μM [8]: ~4.67 h | Remaining (%) at 60 min [8]: 84.73% | CLhep predicted at 2 μM [8]: ~17.4 mL/min/kg | CLint scaled at 2 μM [8]: ~21.6 mL/min/kg | AUC_%Extrap_obs [9, 20]: 0.0313% | AUC(0-inf) [9, 23]: 15500 ng·h/mL | AUC(0-t) [9, 23]: 15400 ng·h/mL | Cmax [9, 23]: 20900 ng/mL | MRT inf [9, 23]: 0.57 h | Tmax [9, 23]: 0.333 h | half-life [9, 23]: 1.06 h
SMILES: CNc1ccc(C(N)=O)cn1 [JBSNF-000265, reference compound]
AUClast of 1-MNA [3, 16]: 799 ng·h/mL | Cmax of 1-MNA [3, 16]: 39.3 ng/mL | Tmax of 1-MNA [3, 16]: 6.7 h | IC50 [12]: 2100 nM

SMILES: CNc1cc(C)c(C(N)=O)cn1 [JBSNF-000581, reference compound]
IC50 ([1]; read-out: in vitro hNNMT IC50): 840 nM
